Measured values: PubChem BioAssay (NCI)
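Values below derive from 48-hour exposures of cells grown in 96-well plates, with endpoints linearly interpolated between the two concentrations bracketing the appropriate inhibition level. GI50 marks 50% less growth. TGI marks complete inhibition of growth.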

Key:
Test in all cases: DTP human tumour cell line panel, 48 h
SF-539 CNS = test system: SF-539 CNS
T-47D breast = test system: T-47D breast
SF-268 CNS = test system: SF-268 CNS
DU-145 prostate = test system: DU-145 prostate
HCT-116 colon = test system: HCT-116 colon
PC-3 prostate = test system: PC-3 prostate
M14 melanoma = test system: M14 melanoma
HS 578T breast = test system: HS 578T breast
SN12C renal = test system: SN12C renal
ACHN renal = test system: ACHN renal
A498 renal = test system: A498 renal
UACC-257 melanoma = test system: UACC-257 melanoma
NCI/ADR-RES ovarian = test system: NCI/ADR-RES ovarian
COLO 205 colon = test system: COLO 205 colon
SF-295 CNS = test system: SF-295 CNS
HCT-15 colon = test system: HCT-15 colon
CAKI-1 renal = test system: CAKI-1 renal
SK-OV-3 ovarian = test system: SK-OV-3 ovarian
HT29 colon = test system: HT29 colon
UACC-62 melanoma = test system: UACC-62 melanoma
MALME-3M melanoma = test system: MALME-3M melanoma
SNB-75 CNS = test system: SNB-75 CNS
OVCAR-4 ovarian = test system: OVCAR-4 ovarian
NCI-H460 lung = test system: NCI-H460 lung
UO-31 renal = test system: UO-31 renal
786-0 renal = test system: 786-0 renal
SK-MEL-2 melanoma = test system: SK-MEL-2 melanoma
NCI-H226 lung = test system: NCI-H226 lung

In the case of `CN(Cc1ccccc1)S(=O)(=O)/N=C1\NC(=O)NC1=C(Cl)Cl`, the GI50 (SF-539 CNS) is reported as 1.74 µM, the TGI (SF-539 CNS) is reported as 3.25 µM and the GI50 (T-47D breast) is reported as 1.59 µM. The TGI (T-47D breast) was 21.8 µM, the GI50 (SF-268 CNS) was 2.46 µM and the TGI (SF-268 CNS) was 7.02 µM. It also gave a GI50 (DU-145 prostate) of 2.37 µM, a TGI (DU-145 prostate) of 5.34 µM and a GI50 (HCT-116 colon) of 1.94 µM. The TGI (HCT-116 colon) was 3.81 µM, the GI50 (PC-3 prostate) was 2.02 µM and the TGI (PC-3 prostate) was 4.39 µM. It also gave a GI50 (M14 melanoma) of 1.76 µM, a TGI (M14 melanoma) of 3.51 µM and a GI50 (HS 578T breast) of 2.82 µM. For the same compound, the TGI (HS 578T breast) was 8.87 µM, the GI50 (SN12C renal) was 1.81 µM and the TGI (SN12C renal) was 3.38 µM. For the same compound, the GI50 (ACHN renal) was 1.77 µM, the TGI (ACHN renal) was 3.19 µM and the GI50 (A498 renal) was 2.19 µM. The TGI (A498 renal) was 6.31 µM, the GI50 (UACC-257 melanoma) was 2.22 µM and the TGI (UACC-257 melanoma) was 5.29 µM. For the same compound, the GI50 (NCI/ADR-RES ovarian) was 2.1 µM, the TGI (NCI/ADR-RES ovarian) was 4.96 µM and the GI50 (COLO 205 colon) was 1.96 µM. For the same compound, the TGI (COLO 205 colon) was 3.98 µM, the GI50 (SF-295 CNS) was 3.51 µM and the TGI (SF-295 CNS) was 12.2 µM. The GI50 (HCT-15 colon) was 1.52 µM, the TGI (HCT-15 colon) was 3.11 µM and the GI50 (CAKI-1 renal) was 1.67 µM. It also gave a TGI (CAKI-1 renal) of 3.12 µM, a GI50 (SK-OV-3 ovarian) of 15.7 µM and a TGI (SK-OV-3 ovarian) of 29.2 µM. The GI50 (HT29 colon) was 2.07 µM, the TGI (HT29 colon) was 4.72 µM and the GI50 (UACC-62 melanoma) was 1.73 µM. The TGI (UACC-62 melanoma) was 3.32 µM, the GI50 (MALME-3M melanoma) was 1.79 µM and the TGI (MALME-3M melanoma) was 3.48 µM. The GI50 (SNB-75 CNS) was 2.04 µM, the TGI (SNB-75 CNS) was 9.32 µM and the GI50 (OVCAR-4 ovarian) was 1.84 µM. The TGI (OVCAR-4 ovarian) was 3.64 µM, the GI50 (NCI-H460 lung) was 2.39 µM and the TGI (NCI-H460 lung) was 5.68 µM. For the same compound, the GI50 (UO-31 renal) was 2.45 µM, the TGI (UO-31 renal) was 10.4 µM and the GI50 (786-0 renal) was 2.06 µM. For the same compound, the TGI (786-0 renal) was 4.6 µM, the GI50 (SK-MEL-2 melanoma) was 2.76 µM and the TGI (SK-MEL-2 melanoma) was 7.84 µM. It also gave a GI50 (NCI-H226 lung) of 2.21 µM and a TGI (NCI-H226 lung) of 5.42 µM.
